Source: patent US9186416B2, “Immunoconjugates, compositions for making them, and methods of making and use” (priority 2011, dated 2015)

How the values were obtained:
[1] = system: 786-O cell lysate; assay: Dephosphorylation by 786-O cell lysate; format: in vitro ADME, human; conditions: 100 μM compound, 786-O lysate 2 mg/mL protein, pH 5.5, 37° C.
Description: 786-O cells, as frozen pellets with an estimated quantity of 10^7 cells per vortexing tube, were resuspended and homogenized in 500 μL of lysis buffer (25 mM NaOAc, 1 mM EDTA, 0.25 M sucrose, 0.1% Triton X-100, pH 5.5). Homogenization involved vortex mixing for 30 sec, followed by a one min cooling on ice. For each tube, three vortex and cooling cycles were performed. Cell samples were then further mixed by shearing in a 19 gauge needle three times.
Following homogenization, the DNA of the cell lysate was hydrolyzed using BENZONASE™ DNAse. Samples were first brought up in 1 mM MgSO4. After mixing, 2 μL of BENZONASE™ DNAse (neat) were added to each vial of lysate (4 μL/mL, v/v, final concentration). Samples were then stored at RT for 15 min and then cooled on ice. For this step, successful DNAse activity was evidenced by appearance of flocculent precipitate. Samples were then spun at maximum speed in a microcentrifuge for 5 min to remove cellular debris. Supernatant was frozen at −70° C. for later use. Protein concentration of the lysate was determined using Pierce BCA Protein Determination methodology (Thermo Scientific).
A 2000 μM stock solution of the compound of formula (Ia) was prepared. Lysate was diluted to 2.1 mg/mL in lysate buffer. For reaction, 5 μL of the compound (Ia) stock was added to 95 μL of lysate. […]

[2] = system: H226 cell lysates; assay: Dephosphorylation by H226 cell lysates; format: in vitro ADME, human; conditions: similar experiment

Nc1ccc(C(=O)Nc2ccc3[nH]c(C(=O)N4C[C@@H](CCl)c5c4cc(OP(=O)(O)O)c4ccccc54)cc3c2)cc1 [compound (Ia)]
time to complete dephosphorylation [1]: ≤ 8 h
time to complete dephosphorylation [2]: ≤ 3 h
